Where two headings read alike, the source gives them in different places.
Assays:
[1] = molecular target: T1, hM4Di (Homo sapiens, UniProt P08173, A203G/Y113C); parameters: host or cells: rat (Sprague-Dawley) primary motor cortex neurons transduced in vivo with AAV5, Camk2a promoter; conditions: in vivo
T1 sequence (P08173 1-479 Y113C/A203G): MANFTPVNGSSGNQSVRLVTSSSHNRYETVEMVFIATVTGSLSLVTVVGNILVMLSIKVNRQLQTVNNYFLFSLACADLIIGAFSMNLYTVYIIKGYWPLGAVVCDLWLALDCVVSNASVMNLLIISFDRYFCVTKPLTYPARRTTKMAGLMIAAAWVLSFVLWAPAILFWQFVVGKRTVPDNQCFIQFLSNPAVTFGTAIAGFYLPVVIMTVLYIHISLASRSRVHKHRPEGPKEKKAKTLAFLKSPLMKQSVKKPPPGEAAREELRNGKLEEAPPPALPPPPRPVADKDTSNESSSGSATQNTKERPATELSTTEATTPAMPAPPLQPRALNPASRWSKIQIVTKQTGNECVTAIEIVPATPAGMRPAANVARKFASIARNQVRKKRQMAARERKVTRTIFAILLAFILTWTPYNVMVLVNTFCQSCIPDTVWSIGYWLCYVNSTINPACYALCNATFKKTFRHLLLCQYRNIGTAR

[2] = molecular target: T1, hM4Di; assay: Overview of hM4Di/CNO treatment in in vivo models of focal epilepsy
[3] = cited from earlier work
[4] = tested on: human muscarinic acetylcholine receptors mutated to DREADDs; conditions: cited from earlier work
[5] = molecular target: T1, hM4Di; assay type: in vivo; parameters: host or cells: rat (Sprague-Dawley) primary motor cortex neurons transduced in vivo with AAV5, Camk2a promoter; conditions: tetanus toxin model; CNO 1 mg/kg i.p. twice at 2-hour interval, 3.5 hour window, vs vehicle; P=0.028 Wilcoxon
[6] = molecular target: T1, hM4Di; assay type: in vivo; parameters: host or cells: rat (Sprague-Dawley) primary motor cortex neurons transduced in vivo with AAV5, Camk2a promoter
[7] = human, in vivo; cited from earlier work
[8] = molecular target: hM3Dq (Homo sapiens, UniProt P20309, A239G/Y149C); conditions: cited from earlier work
hM3Dq, sequence (P20309 whole entry Y149C/A239G): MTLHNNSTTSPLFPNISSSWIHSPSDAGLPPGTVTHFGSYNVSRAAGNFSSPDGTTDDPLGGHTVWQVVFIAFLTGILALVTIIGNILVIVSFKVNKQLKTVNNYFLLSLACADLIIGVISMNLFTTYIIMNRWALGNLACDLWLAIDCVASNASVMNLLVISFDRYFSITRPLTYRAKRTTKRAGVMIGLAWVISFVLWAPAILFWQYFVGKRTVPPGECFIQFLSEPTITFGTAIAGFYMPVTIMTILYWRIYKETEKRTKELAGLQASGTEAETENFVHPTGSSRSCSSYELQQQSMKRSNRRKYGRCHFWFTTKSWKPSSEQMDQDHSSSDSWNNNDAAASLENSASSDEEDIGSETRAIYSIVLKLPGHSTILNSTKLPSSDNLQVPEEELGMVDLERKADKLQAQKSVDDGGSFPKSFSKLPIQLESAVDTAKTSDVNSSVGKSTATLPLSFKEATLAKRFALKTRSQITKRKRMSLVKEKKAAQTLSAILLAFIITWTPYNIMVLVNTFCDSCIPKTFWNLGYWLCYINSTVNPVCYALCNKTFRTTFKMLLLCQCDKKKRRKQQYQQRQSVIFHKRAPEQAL

SMILES	electrographic and motor convulsions [1]	mean 4-14 Hz power [1]	mean frequency of negative deflections in the EEG [1]	number of IF runs that correlate with severe motor seizures [1]	pilocarpine-triggered seizures [1]	time to significant reduction in seizure severity after CNO administration [1]	duration of seizure suppression / CNO present in the brain ([2]; following a single intraperitoneal injection)	tolerability of the treatment ([2]; hM4Di expression plus systemic CNO)	duration of effect on neurons transduced with hM4Di or its excitatory analog [3]	time to full clearance ([3]; rat, in vivo)	activation of DREADD receptors [4]	coastline [5]	frequency of epileptiform bursts [5]	high-frequency power [5]	time to significant reduction in seizure severity after CNO administration ([6]; picrotoxin (FIG. 2e))	attenuation of IF activity ([6]; picrotoxin, IF activity correlated with more severe motor seizures)	electrographic discharges ([6]; rats with hM4Di AAV in M1, CNO i.p. immediately after focal picrotoxin, vs vehicle)	half-life [7]	binding to hM3Dq [8]
C[N+]1([O-])CCN(C2=Nc3cc(Cl)ccc3Nc3ccccc32)CC1 [CNO, clozapine-N-oxide]	substantially reduced	significant decrease	significant decrease	significant decrease	profoundly suppressed	≤ 10 min	45 to 60 min	well tolerated	at least 90 minutes	≤ 12 h	readily activated	significantly attenuated	significantly attenuated	significantly attenuated	≤ 10 min	especially marked	attenuated	7 to 8 h	–
CN1CCN(C2=Nc3ccccc3Cc3ccccc32)CC1 [perlapine]	–	–	–	–	–	–	–	–	–	–	–	–	–	–	–	–	–	–	binds

— patent publication US10525103B2, “Combined use of a vector encoding a modified receptor and its exogenous agonist in the treatment of seizures” (UCL BUSINESS LTD, priority 2014, dated 2020)
